Test results taken from patent publication US20240124450A1, “Novel SIK Inhibitors” (Pfizer Inc., priority 2022, published 2024).
pEC50, pIC50: −log10 of the molar value.

Assays:
[1] = tested on: TNFα release from human monocyte derived macrophages stimulated with LPS; experiment: SIK macrophage cytokine assay, inhibition of TNFα release; format: cell-based; conditions: Macrophage, 1 ng/mL LPS, 4 hours, HTRF, read-out: TNFa IC50
Experimental: (§1) Cytokine Assays: SIK Macrophage Assay Cytokine activity is determined by measuring the effect of a test agent on the inhibitory release of the cytokine TNFα and the increasing release of the cytokine IL10 from human monocyte derived macrophages (human macrophages) stimulated with lipopolysaccharide (LPS). At the time of assay, human macrophages (CGPS group Pfizer Groton, CT) are removed from cryopreservation, thawed quickly at 37° C., diluted in thaw medium (OptiMEM—Gibco medium, 10% heat inactivated fetal bovine serum (HIFBS)), and then centrifuged at 200×g for 10 minutes. […] After ˜60 minutes in an incubator at 37° C. in a humidified environment in 5% carbon dioxide the cells are stimulated by the addition of 5 μL of LPS (10 ng/mL; Sigma) and the assay plate is returned to an incubator at 37° C. in a humidified environment in 5% carbon dioxide for 4 hours. […] The final concentration of DMSO in the assay is approximately 0.1%. After 4 hours, the assay plate is removed from the incubator and centrifuged at 1500 rpm for 10 minutes. A portion of the resulting cell supernatant is then used to determine the amount of IL-10 and TNFα in each well. Cytokine measurements are made using human IL-10 and TNFα HTRF assay kits (Perkin Elmer) following the manufacturer's assay protocol.

[2] = biological target: SIK2 (Homo sapiens (Human), UniProt Q9H0K1); experiment: Pan SIK MS IC50 enzyme assay (SIK2); format: biochemical; conditions: 1 mM ATP, substrate peptide AQT0252, LCMS/MS detection
Experimental: (§2) Enzyme Assay: Pan SIK MS IC50 Assay
(§3) Salt Induced Kinase (SIK) activity is determined by measuring the effect of a test agent on the activity of the appropriate SIK enzyme to phosphorylate its corresponding substrate. […] The phosphorylated substrate product resulting from the kinase reaction is detected by LCMS/MS, and the area under the peak curve correlates with kinase activity. […] The plates are spun at 1000 rpm for 30 seconds to ensure compounds are at the bottom of the well before removing foil covers. 0.15 μL HPE (assay std) and ZPE (DMSO) are added to the ARP using an HP D300 dispenser. Plates are spun again at 1000 rpm for 30 seconds. […] Plates are spun at 1000 rpm for 30 seconds. Plates are then sealed and incubated at RT for 10 minutes. Following incubation, 5 μL of 5× peptide reagent is added with a Multidrop Combi and designated small volume cassette to initiate the kinase reaction. Plates are spun at 1000 rpm for 30 seconds. Plates are then sealed and incubated at RT for 90 minutes. The assay is stopped by the addition of 5 μl of 120 mM EDTA added with a Multidrop Combi and designated small volume cassette (20 mM final concentration). Plates are spun at 1000 rpm for 30 seconds. 10 μl of the final reaction mix from each of the three individual enzyme plates are transferred by a Platemate Plus to the same corresponding 96 well deepwell plate containing 70 μl Water/Methanol (85/15%) for multiplex MS detection ([…]). Using Activity Base (ABase), an idbs data analysis software tool, the reported area ratio unit data is associated to compound, batch and dose information, the data is evaluated for quality, and the percent inhibition of each well is calculated. The data from each Max effect/HPE and Min effect/ZPE control wells are assessed, and outliers are excluded from all further calculations. The mean and standard deviation of the HPE and ZPE are then calculated for each plate, along with the Z Prime. The compound data is converted into % effect, using the average ZPE and HPE controls as 0% and 100% activity, respectively.

[3] = tested on: IL10 release from human monocyte derived macrophages stimulated with LPS; experiment: SIK macrophage cytokine assay, increase of IL10 release; format: cell-based; conditions: Macrophage, 1 ng/mL LPS, 4 hours, HTRF
Experimental: as §1

[4] = biological target: SIK3 (Homo sapiens (Human), UniProt Q9Y2K2); experiment: Pan SIK MS IC50 enzyme assay (SIK3); format: biochemical; conditions: 1 mM ATP, substrate peptide AQT0508, LCMS/MS detection
Experimental: as §2, §3

[5] = biological target: SIK1 (Homo sapiens (Human), UniProt P57059); experiment: Pan SIK MS IC50 enzyme assay (SIK1); format: biochemical; conditions: 1 mM ATP, substrate peptide AQT0868, LCMS/MS detection
Experimental: as §2, §3

SIK3, sequence (Q9Y2K2 whole entry, species assumed): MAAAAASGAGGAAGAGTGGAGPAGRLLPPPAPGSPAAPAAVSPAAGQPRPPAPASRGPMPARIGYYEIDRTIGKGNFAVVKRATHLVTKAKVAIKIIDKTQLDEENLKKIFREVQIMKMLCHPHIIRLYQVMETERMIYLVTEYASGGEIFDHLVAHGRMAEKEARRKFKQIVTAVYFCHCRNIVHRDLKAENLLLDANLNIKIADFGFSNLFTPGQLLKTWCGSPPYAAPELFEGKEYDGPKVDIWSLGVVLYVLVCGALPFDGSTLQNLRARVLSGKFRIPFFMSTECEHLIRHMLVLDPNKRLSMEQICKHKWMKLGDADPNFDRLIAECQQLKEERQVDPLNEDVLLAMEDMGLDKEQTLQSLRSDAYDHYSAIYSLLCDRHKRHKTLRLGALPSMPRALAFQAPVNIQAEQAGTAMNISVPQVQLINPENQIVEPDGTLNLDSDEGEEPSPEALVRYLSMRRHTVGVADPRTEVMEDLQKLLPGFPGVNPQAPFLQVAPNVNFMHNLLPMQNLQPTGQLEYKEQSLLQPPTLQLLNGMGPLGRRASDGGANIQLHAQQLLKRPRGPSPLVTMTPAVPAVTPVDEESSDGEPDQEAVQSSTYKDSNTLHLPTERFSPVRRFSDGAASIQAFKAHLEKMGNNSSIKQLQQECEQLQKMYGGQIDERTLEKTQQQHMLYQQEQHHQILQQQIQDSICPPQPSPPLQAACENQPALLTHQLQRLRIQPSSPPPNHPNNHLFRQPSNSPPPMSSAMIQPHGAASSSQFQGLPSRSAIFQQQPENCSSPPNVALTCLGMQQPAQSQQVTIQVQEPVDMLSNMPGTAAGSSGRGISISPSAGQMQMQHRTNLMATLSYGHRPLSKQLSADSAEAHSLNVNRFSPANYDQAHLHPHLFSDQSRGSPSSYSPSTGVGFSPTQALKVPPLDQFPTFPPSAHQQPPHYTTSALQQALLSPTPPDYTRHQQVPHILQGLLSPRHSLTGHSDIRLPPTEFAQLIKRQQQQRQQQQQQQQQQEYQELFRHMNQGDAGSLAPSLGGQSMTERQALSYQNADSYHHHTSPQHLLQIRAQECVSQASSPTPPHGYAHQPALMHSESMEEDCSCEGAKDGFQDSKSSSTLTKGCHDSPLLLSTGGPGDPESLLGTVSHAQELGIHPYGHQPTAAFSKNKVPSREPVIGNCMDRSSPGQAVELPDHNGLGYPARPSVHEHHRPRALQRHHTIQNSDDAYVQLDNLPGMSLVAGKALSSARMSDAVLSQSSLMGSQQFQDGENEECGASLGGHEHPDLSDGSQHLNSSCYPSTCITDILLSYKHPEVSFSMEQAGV
SIK1, sequence (P57059 whole entry, species assumed): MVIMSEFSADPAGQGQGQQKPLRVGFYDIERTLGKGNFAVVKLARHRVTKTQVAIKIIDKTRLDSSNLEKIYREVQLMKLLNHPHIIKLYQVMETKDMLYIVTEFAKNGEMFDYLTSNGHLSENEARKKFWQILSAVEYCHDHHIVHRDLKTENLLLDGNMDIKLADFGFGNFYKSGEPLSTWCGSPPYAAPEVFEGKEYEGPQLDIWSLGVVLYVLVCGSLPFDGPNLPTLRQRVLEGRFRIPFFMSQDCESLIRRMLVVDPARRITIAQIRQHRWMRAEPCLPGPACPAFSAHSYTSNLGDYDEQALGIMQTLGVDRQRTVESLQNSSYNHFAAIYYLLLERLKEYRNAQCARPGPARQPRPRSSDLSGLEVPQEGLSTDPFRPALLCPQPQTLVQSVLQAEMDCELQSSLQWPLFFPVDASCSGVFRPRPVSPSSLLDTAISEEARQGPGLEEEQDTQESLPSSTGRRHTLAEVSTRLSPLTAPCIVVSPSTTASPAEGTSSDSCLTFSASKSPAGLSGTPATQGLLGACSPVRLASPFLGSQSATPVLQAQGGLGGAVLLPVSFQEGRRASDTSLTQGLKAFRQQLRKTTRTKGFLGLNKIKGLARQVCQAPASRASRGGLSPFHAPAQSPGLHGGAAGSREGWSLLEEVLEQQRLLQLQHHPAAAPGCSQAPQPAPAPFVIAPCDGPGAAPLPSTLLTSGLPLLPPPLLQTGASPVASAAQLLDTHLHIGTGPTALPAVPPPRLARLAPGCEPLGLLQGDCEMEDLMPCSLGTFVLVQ
SIK2, sequence (Q9H0K1 whole entry, species assumed): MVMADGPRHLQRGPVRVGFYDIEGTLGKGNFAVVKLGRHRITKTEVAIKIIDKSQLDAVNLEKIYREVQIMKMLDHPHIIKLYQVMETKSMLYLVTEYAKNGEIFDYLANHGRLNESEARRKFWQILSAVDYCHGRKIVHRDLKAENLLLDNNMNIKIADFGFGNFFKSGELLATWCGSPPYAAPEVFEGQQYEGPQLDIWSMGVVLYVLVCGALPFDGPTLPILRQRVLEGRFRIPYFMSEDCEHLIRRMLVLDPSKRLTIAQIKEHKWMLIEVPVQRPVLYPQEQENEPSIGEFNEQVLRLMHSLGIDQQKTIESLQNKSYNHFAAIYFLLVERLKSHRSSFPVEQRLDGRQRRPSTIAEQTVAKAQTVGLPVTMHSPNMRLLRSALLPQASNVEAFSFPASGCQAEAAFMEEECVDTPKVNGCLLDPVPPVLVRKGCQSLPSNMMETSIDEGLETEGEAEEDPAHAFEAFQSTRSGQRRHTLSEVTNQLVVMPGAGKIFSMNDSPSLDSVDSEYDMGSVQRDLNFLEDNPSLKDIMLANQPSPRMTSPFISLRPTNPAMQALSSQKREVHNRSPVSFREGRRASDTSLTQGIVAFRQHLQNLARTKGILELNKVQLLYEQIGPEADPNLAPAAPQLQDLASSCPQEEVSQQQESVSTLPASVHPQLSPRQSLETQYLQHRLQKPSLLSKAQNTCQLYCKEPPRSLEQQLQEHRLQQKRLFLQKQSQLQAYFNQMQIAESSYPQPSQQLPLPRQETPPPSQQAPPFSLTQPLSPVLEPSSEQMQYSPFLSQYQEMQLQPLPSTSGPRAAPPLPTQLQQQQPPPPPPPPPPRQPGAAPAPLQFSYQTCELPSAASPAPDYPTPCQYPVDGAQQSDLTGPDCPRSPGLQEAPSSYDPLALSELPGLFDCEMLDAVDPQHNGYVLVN

SMILES	pIC50 [1]	pIC50 [2]	pEC50 [3]	pIC50 [4]	pIC50 [5]
CSc1cc(-c2cnc3cc(C)cc(C#N)n23)cc(OCC2(N)CCCC2)c1C#N [Example 41, 3-(3-((1-Aminocyclopentyl)methoxy)-4-cyano-5-(methylthio)phenyl)-7-methylimidazo[1,2-a]pyridine-5-carbonitrile]	8.28	9.10	7.27	9.15	8.72
CSc1cc(-c2cnc3ccc(N(C)C)c(C#N)n23)cc(OCC2(N)CCCC2)c1C#N [Example 43, 3-(3-((1-Aminocyclopentyl)methoxy)-4-cyano-5-(methylthio)phenyl)-6-(dimethylamino)imidazo[1,2-a]pyridine-5-carbonitrile]	9.22	9.40	8.70	8.96	9.70
CCc1ccc2ncc(-c3cc(OCC4(N)CCCC4)c(C#N)c(SC)c3)n2c1C#N [Example 44, 3-(3-((1-Aminocyclopentyl)methoxy)-4-cyano-5-(methylthio)phenyl)-6-ethylimidazo[1,2-a]pyridine-5-carbonitrile]	7.68	8.77	7.42	8.68	8.64
CSc1cc(-c2cnc3ccc(N4CCC4)c(C#N)n23)cc(OCC2(N)CCCC2)c1C#N [Example 46, 3-(3-((1-Aminocyclopentyl)methoxy)-4-cyano-5-(methylthio)phenyl)-6-(azetidin-1-yl)imidazo[1,2-a]pyridine-5-carbonitrile]	8.16	8.82	7.55	8.55	9.10
CSc1cc(-c2cnc3ccc(N4CCCC4)c(C#N)n23)cc(OCC2(N)CCCC2)c1C#N [Example 47, 3-(3-((1-Aminocyclopentyl)methoxy)-4-cyano-5-(methylthio)phenyl)-6-(pyrrolidin-1-yl)imidazo[1,2-a]pyridine-5-carbonitrile]	8.85	9.40	8.22	9.05	9.70
COc1ccc2ncc(-c3cc(OCC4(N)CCCCC4)c(C#N)c(SC)c3)n2c1C#N [Example 49, 3-(3-((1-Aminocyclohexyl)methoxy)-4-cyano-5-(methylthio)phenyl)-6-methoxyimidazo[1,2-a]pyridine-5-carbonitrile]	8.19	9.15	7.74	8.62	9.05
COc1cc(C#N)n2c(-c3cc(OCC4(N)CCCC4)c(C#N)c(SC)c3)cnc2c1 [Example 50, 3-(3-((1-Aminocyclopentyl)methoxy)-4-cyano-5-(methylthio)phenyl)-7-methoxyimidazo[1,2-a]pyridine-5-carbonitrile]	8.38	9.30	7.54	9.10	8.92
COc1cc(C#N)n2c(-c3cc(OCC4(N)CCCCC4)c(C#N)c(SC)c3)cnc2c1 [Example 51, 3-(3-((1-Aminocyclohexyl)methoxy)-4-cyano-5-(methylthio)phenyl)-7-methoxyimidazo[1,2-a]pyridine-5-carbonitrile]	8.24	9.30	7.59	8.80	8.82
CNc1ccc2ncc(-c3cc(OCC4(N)CCCC4)c(C#N)c(SC)c3)n2c1C#N [Example 53, 3-(3-((1-Aminocyclopentyl)methoxy)-4-cyano-5-(methylthio)phenyl)-6-(methylamino)imidazo[1,2-a]pyridine-5-carbonitrile]	9.30	9.40	8.40	8.82	10.00

The remaining compounds from weak to strong by pIC50 [1], led by results:

pIC50 [1]	pIC50 [2]	pEC50 [3]	pIC50 [4]	pIC50 [5]	SMILES
7.92	8.96	6.75	8.68	8.29	COc1cc(C#N)n2c(-c3cc(OC)c(C#N)c(OCC4(N)CCCCC4)c3)cnc2c1 [Example 52, 3-(3-((1-Aminocyclohexyl)methoxy)-4-cyano-5-methoxyphenyl)-7-methoxyimidazo[1,2-a]pyridine-5-carbonitrile]
7.97	9.05	7.07	8.66	8.52	CSc1cc(-c2cnc3cc(Cl)cc(C#N)n23)cc(OCC2(N)CCCC2)c1C#N [Example 42, 3-(3-((1-Aminocyclopentyl)methoxy)-4-cyano-5-(methylthio)phenyl)-7-chloroimidazo[1,2-a]pyridine-5-carbonitrile]
9.10	9.15	8.40	8.77	9.40	COc1cc(-c2cnc3ccc(N(C)C)c(C#N)n23)cc(OCC2(N)CCCC2)c1C#N [Example 48, 3-(3-((1-Aminocyclopentyl)methoxy)-4-cyano-5-methoxyphenyl)-6-(dimethylamino)imidazo[1,2-a]pyridine-5-carbonitrile]
9.22	9.70	8.52	9.40	10.00	CSc1cc(-c2cnc3ccc(N)c(C#N)n23)cc(OCC2(N)CCCC2)c1C#N [Example 45, 6-Amino-3-(3-((1-aminocyclopentyl)methoxy)-4-cyano-5-(methylthio)phenyl)imidazo[1,2-a]pyridine-5-carbonitrile]
